Measurements published in the NIST ThermoML archive (doi:10.1021/je4009415).
± gives the expanded uncertainty stated by the source.

Experiment: xn = mol fraction of the nth substance listed
Settings: Liquid, Vibrating tube method

CCC(=O)OC [methyl propanoate] + CCCCCCC
mass density (308.15 K, x1 = 0.5482): 764.86 ± 0.46 kg/m3 | mass density (308.15 K, x1 = 0.6013): 777.11 ± 0.49 kg/m3 | mass density (308.15 K, x1 = 0.6438): 787.52 ± 0.52 kg/m3 | mass density (308.15 K, x1 = 0.7002): 801.92 ± 0.56 kg/m3 | mass density (308.15 K, x1 = 0.7516): 815.93 ± 0.6 kg/m3 | mass density (308.15 K, x1 = 0.7947): 828.3 ± 0.64 kg/m3 | mass density (308.15 K, x1 = 0.8541): 846.5 ± 0.7 kg/m3 | mass density (308.15 K, x1 = 0.8904): 858.19 ± 0.74 kg/m3 | mass density (308.15 K, x1 = 0.9494): 878.31 ± 0.81 kg/m3 | mass density (308.15 K, x1 = 1): 896.91 ± 0.86 kg/m3 | mass density (318.15 K, x1 = 0.054): 669.26 ± 0.27 kg/m3 | mass density (318.15 K, x1 = 0.1006): 675.53 ± 0.28 kg/m3 | mass density (318.15 K, x1 = 0.1635): 684.64 ± 0.29 kg/m3 | mass density (318.15 K, x1 = 0.1984): 689.88 ± 0.3 kg/m3 | mass density (318.15 K, x1 = 0.2627): 699.98 ± 0.32 kg/m3 | mass density (318.15 K, x1 = 0.2892): 704.22 ± 0.33 kg/m3 | mass density (318.15 K, x1 = 0.3492): 714.64 ± 0.36 kg/m3 | mass density (318.15 K, x1 = 0.3962): 723.32 ± 0.38 kg/m3 | mass density (318.15 K, x1 = 0.4482): 733.48 ± 0.4 kg/m3 | mass density (318.15 K, x1 = 0.5006): 744.15 ± 0.42 kg/m3 | mass density (318.15 K, x1 = 0.554): 755.69 ± 0.45 kg/m3 | mass density (318.15 K, x1 = 0.5928): 764.54 ± 0.48 kg/m3 | mass density (318.15 K, x1 = 0.6531): 779.07 ± 0.52 kg/m3 | mass density (318.15 K, x1 = 0.7022): 791.53 ± 0.55 kg/m3 | mass density (318.15 K, x1 = 0.7463): 803.36 ± 0.59 kg/m3 | mass density (318.15 K, x1 = 0.796): 817.45 ± 0.63 kg/m3 | mass density (318.15 K, x1 = 0.8421): 831.26 ± 0.67 kg/m3 | mass density (318.15 K, x1 = 0.8911): 846.73 ± 0.72 kg/m3 | mass density (318.15 K, x1 = 0.9487): 866.17 ± 0.79 kg/m3 | mass density (318.15 K, x1 = 1): 884.71 ± 0.84 kg/m3 | mass density (328.15 K, x1 = 0.0434): 659.02 ± 0.27 kg/m3 | mass density (328.15 K, x1 = 0.1): 666.42 ± 0.28 kg/m3 | mass density (328.15 K, x1 = 0.1539): 673.86 ± 0.29 kg/m3 | mass density (328.15 K, x1 = 0.2137): 682.78 ± 0.31 kg/m3 | mass density (328.15 K, x1 = 0.263): 690.45 ± 0.32 kg/m3 | mass density (328.15 K, x1 = 0.361): 707.07 ± 0.36 kg/m3 | mass density (328.15 K, x1 = 0.3858): 711.54 ± 0.37 kg/m3 | mass density (328.15 K, x1 = 0.4619): 725.95 ± 0.4 kg/m3 | mass density (328.15 K, x1 = 0.5057): 734.85 ± 0.42 kg/m3 | mass density (328.15 K, x1 = 0.5548): 745.3 ± 0.45 kg/m3 | mass density (328.15 K, x1 = 0.6006): 755.62 ± 0.48 kg/m3 | mass density (328.15 K, x1 = 0.6513): 767.59 ± 0.51 kg/m3 | mass density (328.15 K, x1 = 0.7013): 780.04 ± 0.54 kg/m3 | mass density (328.15 K, x1 = 0.7484): 792.52 ± 0.58 kg/m3 | mass density (328.15 K, x1 = 0.7954): 805.67 ± 0.62 kg/m3 | mass density (328.15 K, x1 = 0.8441): 820.03 ± 0.66 kg/m3 | mass density (328.15 K, x1 = 0.8954): 836.18 ± 0.72 kg/m3 | mass density (328.15 K, x1 = 0.9351): 849.33 ± 0.76 kg/m3 | mass density (328.15 K, x1 = 1): 872.22 ± 0.83 kg/m3
